The values that follow come from PubChem BioAssay (NCI).

Values joined by “and” are separate entries in the source; they are usually repeats but may differ in a detail not shown here. Equal values may be shown once.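 In this assay, cells in 96-well plates receive the compound at five concentrations for 48 hours. Endpoints are linearly interpolated between the surrounding concentrations. The concentration for 50% growth inhibition is given as GI50. Definition used: TGI = concentration required for complete inhibition of growth.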

Test systems include SK-MEL-2 melanoma; CCRF-CEM leukemia; KM12 colon; SK-MEL-5 melanoma; NCI-H23 lung; HT29 colon; EKVX NSCLC; NCI-H460 lung; OVCAR-5 ovarian; MDA-MB-231 breast.
Holding throughout (test): inhibition of tumour cell growth, NCI panel, 48 h

Take `O=C1/C(=C/c2ccccc2)CN(C(=O)Oc2ccc([N+](=O)[O-])cc2)C/C1=C\c1ccccc1`: the TGI with SK-MEL-2 melanoma was 29.2 µM; in the assay with CCRF-CEM leukemia, 6.5 µM and 8.22 µM; with KM12 colon it was 2.89 µM and 5.49 µM; in the assay with SK-MEL-5 melanoma, 5.38 µM; in the assay with HT29 colon it was 4.36 µM and 4.04 µM. Further, the GI50 with CCRF-CEM leukemia is 1.72 µM; in the assay with KM12 colon, 1.88 µM; in the assay on SK-MEL-5 melanoma, 4.12 µM; with NCI-H23 lung, 9.79 µM.

For `CCOC(=O)NNC(=O)NC12CC3CC(CC(C3)C1)C2`, the TGI in the assay with EKVX NSCLC, with NCI-H460 lung, in the assay with SK-MEL-2 melanoma, in the assay on CCRF-CEM leukemia, in the assay on KM12 colon and in the assay on SK-MEL-5 melanoma was more than 100 µM in each case. The TGI in the assay with NCI-H23 lung, in the assay on OVCAR-5 ovarian and with HT29 colon was more than 100 µM throughout.

Take `O=C1CC2Sc3ccccc3N=C2N1c1ccc(Cl)cc1Cl` (stereo unspecified): the TGI is more than 100 µM in the assay with EKVX NSCLC; more than 100 µM in the assay with NCI-H460 lung; more than 100 µM in the assay on SK-MEL-2 melanoma; 52.9 µM in the assay with CCRF-CEM leukemia; more than 100 µM in the assay with KM12 colon; more than 100 µM in the assay with SK-MEL-5 melanoma. Further, the TGI in the assay with NCI-H23 lung, in the assay on OVCAR-5 ovarian and in the assay with HT29 colon was more than 100 µM throughout.

Take `N#CC(=C=[N-])[n+]1ccc(Cl)cc1`: the TGI with EKVX NSCLC was found to be 33.8 µM; in the assay with NCI-H460 lung, 55.5 µM; in the assay with CCRF-CEM leukemia, 56 µM; in the assay on KM12 colon, 59.7 µM; with SK-MEL-5 melanoma, 29.7 µM; in the assay on NCI-H23 lung it was 29.9 µM. The figures for the TGI with OVCAR-5 ovarian and with HT29 colon were 32.7 µM and 33.8 µM, respectively.

Turning to `COc1ccc(S(=O)(=O)NCCNc2nccc(-c3c(-c4ccccc4)nc4sccn34)n2)cc1`, the GI50 in the assay with EKVX NSCLC is 7.11 µM; in the assay with NCI-H460 lung it was 1.24 µM; in the assay with SK-MEL-2 melanoma, 4.98 µM; in the assay on KM12 colon, 0.513 µM; with NCI-H23 lung, 7.35 µM; with OVCAR-5 ovarian it was more than 100 µM. Moreover, the GI50 in the assay with HT29 colon was 1.72 µM. Further, the TGI in the assay on EKVX NSCLC, with NCI-H460 lung, in the assay on SK-MEL-2 melanoma, with KM12 colon, in the assay with NCI-H23 lung and in the assay on OVCAR-5 ovarian was more than 100 µM each time. Besides, in the assay on HT29 colon, the TGI is more than 100 µM.

For `Cc1cccc(N2C(=O)/C(=C/c3ccc(N(CCC#N)CCC#N)cc3C)N=C2c2cc([N+](=O)[O-])ccc2Cl)c1`, the TGI in the assay on EKVX NSCLC, with NCI-H460 lung, in the assay with SK-MEL-2 melanoma, in the assay with CCRF-CEM leukemia, in the assay on KM12 colon and in the assay on SK-MEL-5 melanoma was more than 100 µM each time. Moreover, the TGI in the assay with NCI-H23 lung, in the assay with OVCAR-5 ovarian and in the assay with HT29 colon was more than 100 µM each time.

Turning to `COc1ccc(N(Cc2cc(OC)c(OC)c(OC)c2)C2OC(=O)c3ccccc32)cc1` (stereo unspecified), the GI50 was 0.394 µM with NCI-H460 lung; 0.435 µM in the assay on CCRF-CEM leukemia; 1.21 µM in the assay on MDA-MB-231 breast; 0.434 µM in the assay on KM12 colon; 0.474 µM in the assay with SK-MEL-5 melanoma; 1.15 µM with NCI-H23 lung. For the same compound, the GI50 in the assay on OVCAR-5 ovarian was 3.53 µM; in the assay on HT29 colon, 0.365 µM. Besides, the TGI in the assay on NCI-H460 lung is more than 60.2 µM; in the assay on CCRF-CEM leukemia, more than 100 µM; in the assay on MDA-MB-231 breast, more than 25.4 µM; with KM12 colon, more than 36.7 µM; in the assay on SK-MEL-5 melanoma, 53.1 µM; with NCI-H23 lung, more than 100 µM. The figures for the TGI in the assay with OVCAR-5 ovarian and with HT29 colon were more than 100 µM and more than 43.1 µM, respectively.

Regarding `C/C(=N/Nc1ccc([N+](=O)[O-])cc1[N+](=O)[O-])C(CC(C(=O)Nc1ccccc1C)/C(C)=N\Nc1ccc([N+](=O)[O-])cc1[N+](=O)[O-])C(=O)Nc1ccccc1C` (stereo unspecified), the TGI with EKVX NSCLC was 38 µM; in the assay with NCI-H460 lung, 36.4 µM; in the assay with SK-MEL-2 melanoma, 28.2 µM; in the assay on CCRF-CEM leukemia, more than 100 µM; in the assay on KM12 colon, 38.5 µM; in the assay with SK-MEL-5 melanoma, 36.8 µM. Moreover, the figures for the TGI in the assay with NCI-H23 lung, in the assay on OVCAR-5 ovarian and in the assay on HT29 colon were 25.5 µM, 31 µM and 28 µM, respectively.

Regarding `Cc1ns/c(=N\C(=S)N(C)C)n1C`, the TGI in the assay on EKVX NSCLC, in the assay with NCI-H460 lung, in the assay with SK-MEL-2 melanoma, in the assay on CCRF-CEM leukemia, with KM12 colon and in the assay with SK-MEL-5 melanoma was more than 100 µM each time. Further, the TGI in the assay on NCI-H23 lung, in the assay on OVCAR-5 ovarian and with HT29 colon was more than 100 µM throughout.

With `CCN1CC2(C)CC[C@@H](OC)C34[C@@H]2[C@H](OC(C)=O)C2(OCO[C@@]25C[C@H](OC)C2C[C@]3(O)[C@@H]5[C@H]2O)[C@H]14`, the TGI in the assay on EKVX NSCLC, in the assay with NCI-H460 lung, in the assay on SK-MEL-2 melanoma, with KM12 colon, in the assay with NCI-H23 lung and in the assay with OVCAR-5 ovarian was more than 100 µM throughout. This compound showed a TGI in the assay on HT29 colon of more than 100 µM.

Take `COc1ccccc1NC(=O)C(=O)C1C(=O)Nc2ccccc2S1=O` (stereo unspecified): the TGI with EKVX NSCLC, in the assay with NCI-H460 lung, with SK-MEL-2 melanoma, in the assay with CCRF-CEM leukemia, in the assay on KM12 colon and in the assay with SK-MEL-5 melanoma was more than 100 µM throughout. Also, the TGI with NCI-H23 lung, with OVCAR-5 ovarian and with HT29 colon was more than 100 µM throughout.

With `CC(C)=C1CCC(CN2CCCC2)C1=O` (stereo unspecified), the TGI was more than 100 µM in the assay with EKVX NSCLC; more than 100 µM in the assay on NCI-H460 lung; 77.2 µM with SK-MEL-2 melanoma; 39 µM in the assay with CCRF-CEM leukemia; more than 100 µM in the assay on KM12 colon; more than 100 µM in the assay on SK-MEL-5 melanoma. In addition, the TGI in the assay on NCI-H23 lung was more than 100 µM; with OVCAR-5 ovarian, more than 100 µM; in the assay on HT29 colon, 53.5 µM.

For the compound `COc1cc(CC(=O)c2ccc3c(c2)OCO3)cc(OC)c1OC`, the TGI in the assay on EKVX NSCLC, in the assay on NCI-H460 lung, in the assay with SK-MEL-2 melanoma, with CCRF-CEM leukemia, with KM12 colon and with SK-MEL-5 melanoma was more than 100 µM in each case. The TGI in the assay with NCI-H23 lung, in the assay on OVCAR-5 ovarian and with HT29 colon was more than 100 µM in each case.
